From patent US10131652B2, “Pyrimidinyloxy benzene derivatives as herbicides” (E. I. DU PONT DE NEMOURS AND COMPANY, priority 2014, dated 2018)

Key:
Assay in all cases: Test D pre-/postemergence plant response
Assay type in all cases: in vivo
[1] = test system: Italian ryegrass (Lolium multiflorum); conditions: Postemergence
From the text: (§1) Seeds of plant species selected from blackgrass (Alopecurus myosuroides), Italian ryegrass (Lolium multiflorum), winter wheat (Triticum aestivum), galium (catchweed bedstraw, Galium aparine), corn (Zea mays), large (Lg) crabgrass (Digitaria sanguinalis), giant foxtail (Setaria faberii), johnsongrass (Sorghum halepense), lambsquarters (Chenopodium album), morningglory (Ipomoea coccinea), yellow nutsedge (Cyperus esculentus), pigweed (Amaranthus retroflexus), ragweed (common ragweed, Ambrosia elatior), soybean (Glycine max), bamyardgrass (Echinochloa crus-galli), oilseed rape (Brassica napus), waterhemp (common waterhemp, Amaranthus rudis), and velvetleaf (Abutilon theophrasti) were planted into a blend of loam soil and sand and treated preemergence with test chemicals formulated in a non-phytotoxic solvent mixture which included a surfactant. At the same time, plants selected from these crop and weed species and also kochia (Kochia scoparia), wild oat (Avena fatua), and chickweed (common chickweed, Stellaria media) were planted in pots containing Redi-Earth® planting medium (Scotts Company, 14111 Scottslawn Road, Marysville, Ohio 43041) comprising spaghnum peat moss, vermiculite, wetting agent and starter nutrients and treated with postemergence applications of test chemicals formulated in the same manner. Plants ranged in height from 2 to 18 cm (1- to 4-leaf stage) for postemergence treatments. Treated plants and controls were maintained in a greenhouse for 13 to 15 days, after which time all species were compared to controls and visually evaluated. Plant response ratings, summarized in Table D, are based on a scale of 0 to 100 where 0 is no effect and 100 is complete control. A dash (-) response means no test result.

[2] = test system: oilseed rape (Brassica napus); conditions: Postemergence
From the text: as §1

[3] = test system: lambsquarters (Chenopodium album); conditions: Postemergence
From the text: as §1

[4] = test system: blackgrass (Alopecurus myosuroides); conditions: Postemergence; for Plant response rating, Blackgrass: scale 0 to 100, 0 no effect, 100 complete control
From the text: as §1

[5] = test system: johnsongrass (Sorghum halepense); conditions: Postemergence; for Plant response rating, Johnsongrass: scale 0 to 100, 0 no effect, 100 complete control
From the text: as §1

[6] = test system: galium (catchweed bedstraw, Galium aparine); conditions: Postemergence; for Plant response rating, Galium: scale 0 to 100, 0 no effect, 100 complete control
From the text: as §1

[7] = test system: large (Lg) crabgrass (Digitaria sanguinalis); conditions: Postemergence; for Plant response rating, Crabgrass, Large: scale 0 to 100, 0 no effect, 100 complete control
From the text: as §1

[8] = test system: yellow nutsedge (Cyperus esculentus); conditions: Postemergence
From the text: as §1

[9] = test system: pigweed (Amaranthus retroflexus); conditions: Postemergence
From the text: as §1

[10] = test system: waterhemp (common waterhemp, Amaranthus rudis); conditions: Postemergence
From the text: as §1

[11] = test system: ragweed (common ragweed, Ambrosia elatior); conditions: Postemergence
From the text: as §1

[12] = test system: corn (Zea mays); conditions: Postemergence; for Plant response rating, Corn: scale 0 to 100, 0 no effect, 100 complete control
From the text: as §1

[13] = test system: winter wheat (Triticum aestivum); conditions: Postemergence
From the text: as §1

[14] = test system: soybean (Glycine max); conditions: Postemergence
From the text: as §1

[15] = test system: barnyardgrass (Echinochloa crus-galli); conditions: Postemergence; for Plant response rating, Barnyardgrass: scale 0 to 100, 0 no effect, 100 complete control
From the text: as §1

[16] = test system: velvetleaf (Abutilon theophrasti); conditions: Postemergence
From the text: as §1

[17] = test system: giant foxtail (Setaria faberii); conditions: Postemergence; for Plant response rating, Foxtail, Giant: scale 0 to 100, 0 no effect, 100 complete control
From the text: as §1

[18] = test system: morningglory (Ipomoea coccinea); conditions: Postemergence
From the text: as §1

[19] = 31 g ai/ha, scale 0 to 100 (0 no effect, 100 complete control)
[20] = 62 g ai/ha, scale 0 to 100, 0 no effect, 100 complete control
[21] = 125 g ai/ha, scale 0 to 100, 0 no effect, 100 complete control

Fc1ccc(Oc2ncc(Cl)cn2)c(-c2cc(C(F)(Cl)Cl)on2)c1 [Compound 221]
10: Plant response rating, Ryegrass, Italian [1, 21] | Blackgrass plant response rating [4, 19] | Plant response rating (scale 0 to 100), Crabgrass, Large ([7]; 16 g ai/ha) | Crabgrass, Large plant response rating [7, 19] | Plant response rating, Nutsedge, Yellow [8, 21] | Plant response rating, Corn ([12]; 125 g ai/ha) | Plant response rating, Barnyardgrass ([15]; 125 g ai/ha)
40: Plant response rating, Blackgrass ([4]; 125 g ai/ha)
65: Velvetleaf plant response rating [16, 19] | Plant response rating (scale 0 to 100), Morningglory ([18]; 16 g ai/ha) | Morningglory plant response rating [18, 19]
35: Plant response rating (scale 0 to 100), Ragweed ([11]; 16 g ai/ha) | Plant response rating (scale 0 to 100), Soybean ([14]; 16 g ai/ha) | Plant response rating (scale 0 to 100), Foxtail, Giant ([17]; 16 g ai/ha) | Plant response rating, Foxtail, Giant ([17]; 125 g ai/ha)
100: Plant response rating, Galium ([6]; 62 g ai/ha) | Plant response rating, Galium ([6]; 125 g ai/ha) | Plant response rating, Pigweed [9, 21] | Waterhemp plant response rating [10, 20] | Plant response rating, Waterhemp [10, 21] | Plant response rating, Velvetleaf [16, 21]
30: Plant response rating, Crabgrass, Large ([7]; 125 g ai/ha)
45: Ragweed plant response rating [11, 20]
85: Plant response rating (scale 0 to 100), Lambsquarters ([3]; 16 g ai/ha) | Waterhemp plant response rating [10, 19] | Soybean plant response rating [14, 20] | Plant response rating, Morningglory [18, 21]
0: Plant response rating (scale 0 to 100), Johnsongrass ([5]; 16 g ai/ha) | Plant response rating (scale 0 to 100), Corn ([12]; 16 g ai/ha) | Corn plant response rating [12, 19] | Plant response rating (scale 0 to 100), Wheat ([13]; 16 g ai/ha) | Wheat plant response rating [13, 19] | Plant response rating, Wheat [13, 21] | Plant response rating (scale 0 to 100), Barnyardgrass ([15]; 16 g ai/ha)
50: Ragweed plant response rating [11, 19]
5: Plant response rating (scale 0 to 100), Ryegrass, Italian ([1]; 16 g ai/ha) | Ryegrass, Italian plant response rating [1, 19] | Plant response rating (scale 0 to 100), Blackgrass ([4]; 16 g ai/ha) | Plant response rating, Blackgrass ([4]; 62 g ai/ha) | Johnsongrass plant response rating [5, 19] | Plant response rating (scale 0 to 100), Nutsedge, Yellow ([8]; 16 g ai/ha) | Nutsedge, Yellow plant response rating [8, 19] | Nutsedge, Yellow plant response rating [8, 20] | Plant response rating, Corn ([12]; 62 g ai/ha) | Wheat plant response rating [13, 20] | Barnyardgrass plant response rating [15, 19] | Plant response rating, Barnyardgrass ([15]; 62 g ai/ha) | Foxtail, Giant plant response rating [17, 19] | Plant response rating, Foxtail, Giant ([17]; 62 g ai/ha)
75: Plant response rating, Ragweed [11, 21]
90: Oilseed Rape plant response rating [2, 20] | Plant response rating, Oilseed Rape [2, 21] | Plant response rating, Soybean [14, 21]
98: Plant response rating, Lambsquarters [3, 21] | Pigweed plant response rating [9, 20]
20: Ryegrass, Italian plant response rating [1, 20]
25: Plant response rating, Crabgrass, Large ([7]; 62 g ai/ha) | Soybean plant response rating [14, 19]
70: Plant response rating (scale 0 to 100), Oilseed Rape ([2]; 16 g ai/ha) | Oilseed Rape plant response rating [2, 19] | Plant response rating (scale 0 to 100), Waterhemp ([10]; 16 g ai/ha) | Plant response rating (scale 0 to 100), Velvetleaf ([16]; 16 g ai/ha)
80: Plant response rating (scale 0 to 100), Galium ([6]; 16 g ai/ha) | Galium plant response rating [6, 19] | Velvetleaf plant response rating [16, 20] | Morningglory plant response rating [18, 20]
95: Lambsquarters plant response rating [3, 19] | Lambsquarters plant response rating [3, 20] | Plant response rating (scale 0 to 100), Pigweed ([9]; 16 g ai/ha) | Pigweed plant response rating [9, 19]
15: Plant response rating, Johnsongrass ([5]; 62 g ai/ha) | Plant response rating, Johnsongrass ([5]; 125 g ai/ha)
